In assay [1] the target is BB2 receptor (Homo sapiens (Human), UniProt P30550). Kind of assay: BB2 receptor binding test (125I [Tyr4] bombesin, PC-3 cell membrane sample). As to conditions: 125I [Tyr4] bombesin 0.075 nM, room temperature 2 hours, read-out: IC50 (50% binding inhibition concentration). As to the method:
A BB2 receptor binding test was carried out using a membrane sample prepared from a human prostate cancer-derived PC-3 cell. […] The cells detached by a trypsin treatment were added with a 50 mM Tris-HCl buffer (pH 7.4, containing 0.2 mg/ml trypsin inhibitor and 0.2 mg/ml benzamidine), and homogenized by Polytron. The cell suspension was centrifuged at 1,500 rpm for 10 minutes, and the supernatant thus obtained was subjected to 1 hour of ultracentrifugation at 37,000×g. The precipitate was suspended in the aforementioned buffer to a concentration of 0.4 mg protein/ml, and stored at −80° C.
The BB2 receptor binding test was carried out by the following method, and the receptor antagonistic activity of a compound to be tested was calculated. […] Non-specific binding was measured using 1 μM of bombesin. After completion of the incubation, the reaction solution was filtered through a Whatman GF/B filter which had been soaked in 0.5% polyethyleneimine. The radioactivity on the filter was measured using a microplate scintillation counter (Top Count, Perkin-Elmer Co., Ltd.). Further, Ex represents the number of the Example compound.

Assay [2] relates to male Wistar rat. In words: Restraint stress-induced defecation model. The class given is in vivo. As to conditions: read-out: Inhibitory Rate (%) of number of feces excreted. As to the method:
The compound to be tested of the present test was used by dissolving in water for injection containing 20% propylene glycol+20% Tween 80 or a 0.5% MC (methyl cellulose) solution.
The number of feces excreted during a period from the restriction commencement to 1 hour thereafter was measured. Normal group was put into a separate cage, and number of feces excreted during 1 hour was measured in the same manner.

Assay [3] addresses 5-HT3 receptor (Homo sapiens (Human), UniProt P46098). As to conditions: IBS patients; cited from earlier work.
Assay [4] deals with BB2 receptor. The settings on record: stress-induced defecation model; cited from earlier work.
Assay [5] deals with BB2 receptor. The settings on record: abdominal pain model induced by large intestinal distension; cited from earlier work.
Where [6] appears, read: oral administration 1 mg/kg, 15 minutes before restraint, feces counted for 1 hour.

Read-outs that look alike come from different tables or passages of the source.

Chain of BB2 receptor (Homo sapiens (Human), UniProt P30550) (P30550 whole entry): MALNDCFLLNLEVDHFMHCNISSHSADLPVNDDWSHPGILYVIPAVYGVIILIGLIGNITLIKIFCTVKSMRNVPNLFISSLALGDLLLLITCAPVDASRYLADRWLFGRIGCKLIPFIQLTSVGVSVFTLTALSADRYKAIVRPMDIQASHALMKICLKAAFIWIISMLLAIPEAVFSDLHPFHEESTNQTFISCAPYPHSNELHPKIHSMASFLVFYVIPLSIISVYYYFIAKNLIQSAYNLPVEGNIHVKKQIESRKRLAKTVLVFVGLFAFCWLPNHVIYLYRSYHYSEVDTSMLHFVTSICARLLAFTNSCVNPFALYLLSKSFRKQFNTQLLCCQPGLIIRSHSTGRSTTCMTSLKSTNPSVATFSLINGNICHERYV
Chain of 5-HT3 receptor (P46098 24-478): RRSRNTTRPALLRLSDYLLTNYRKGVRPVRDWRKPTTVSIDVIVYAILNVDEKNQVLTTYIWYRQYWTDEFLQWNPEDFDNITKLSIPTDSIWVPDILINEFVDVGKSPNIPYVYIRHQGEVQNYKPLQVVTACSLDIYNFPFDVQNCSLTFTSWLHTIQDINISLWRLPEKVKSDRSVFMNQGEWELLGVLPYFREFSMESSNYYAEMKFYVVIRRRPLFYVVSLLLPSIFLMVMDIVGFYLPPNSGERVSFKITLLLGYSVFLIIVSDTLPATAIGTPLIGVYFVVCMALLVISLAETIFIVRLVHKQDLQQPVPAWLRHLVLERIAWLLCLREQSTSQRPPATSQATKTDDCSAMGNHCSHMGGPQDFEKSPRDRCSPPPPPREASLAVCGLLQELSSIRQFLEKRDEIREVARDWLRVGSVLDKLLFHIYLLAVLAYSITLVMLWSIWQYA

`O=C(NCCc1ccccn1)[C@@H]1c2ccccc2C(=O)N([C@H](CO)Cc2ccccc2)[C@H]1c1ccc(Cl)cc1Cl` [Ex 61]: the IC50 in assay [1] worked out at 12.8 nM. `C[C@@H](NC(=O)[C@@H]1c2ccccc2C(=O)N([C@H]2CCCC[C@@H]2NS(C)(=O)=O)[C@H]1c1ccc(Cl)cc1Cl)c1ccccc1` [Ex 236]: in assay [1], the IC50 was 3 nM. Take `CS(=O)(=O)N[C@H]1CCCC[C@@H]1N1C(=O)c2ccccc2[C@@H](C(=O)NOCc2cc(C(=O)O)cs2)[C@@H]1c1ccc(Cl)cc1Cl` [Ex 542]: the IC50 in assay [1] is 4.7 nM. The inhibition in vivo at 1 mg/kg in assay [2] (1 h) was 40%.

Regarding `CS(=O)(=O)N[C@H]1CCCC[C@@H]1N1C(=O)c2ccccc2[C@@H](C(=O)NOCc2cccc(C(=O)O)c2)[C@@H]1c1ccc(Cl)cc1Cl` [Ex 560], the IC50 in assay [1] stood at 4.8 nM. In addition, the inhibition in vivo at 1 mg/kg in assay [2] (setting [6]) is 62.1%.

On to `CS(=O)(=O)N[C@H]1CCCC[C@@H]1N1C(=O)c2ccccc2[C@@H](C(=O)NOCc2ccccn2)[C@@H]1c1ccc(Cl)cc1Cl` [Ex 589], for which the IC50 in assay [1] came to 5.7 nM. In addition, in assay [2] (setting [6]), the inhibition in vivo at 1 mg/kg is 73.9%. Taken in the same sequence, the figures for `CS(=O)(=O)N[C@H]1CCCC[C@@H]1N1C(=O)c2ccccc2[C@@H](C(=O)NOCc2cccc(OCC(=O)O)c2)[C@@H]1c1ccc(Cl)cc1Cl` [Ex 631] were 4.5 nM and 53.8%.

Turning to `CS(=O)(=O)NC(=O)c1cccc(CCNC(=O)[C@@H]2c3ccccc3C(=O)N([C@H]3CCCC[C@@H]3NS(C)(=O)=O)[C@H]2c2ccc(Cl)cc2Cl)c1` [Ex 700], in assay [1], the IC50 amounted to 6.7 nM. For the same compound, the inhibition in vivo at 1 mg/kg in assay [2] (setting [6]) stood at 69.8%.

Consider `CS(=O)(=O)N[C@H]1CCCC[C@@H]1N1C(=O)c2ccccc2[C@@H](C(=O)NCCc2ccc(CC(=O)O)cc2)[C@@H]1c1ccc(Cl)cc1Cl` [Ex 701], for which the IC50 in assay [1] turned out to be 7.4 nM. In assay [2] (setting [6]), the inhibition in vivo at 1 mg/kg was 41.3%.

Consider `CS(=O)(=O)N[C@H]1CCCC[C@@H]1N1C(=O)c2ccccc2[C@@H](C(=O)NOCc2cccc(OCCCC(=O)O)c2)[C@@H]1c1ccc(Cl)cc1Cl` [Ex 709], for which the IC50 in assay [1] worked out at 8.9 nM. For the same compound, the inhibition in vivo at 1 mg/kg in assay [2] (setting [6]) is 41.5%. Taken in the same sequence, the figures for `CS(=O)(=O)N[C@H]1CCCC[C@@H]1N1C(=O)c2ccccc2[C@@H](C(=O)NCCc2cccc(C(F)(F)C(=O)O)c2)[C@@H]1c1ccc(Cl)cc1Cl` [Ex 712] were 6.7 nM and 55%. For `CS(=O)(=O)N[C@H]1CCCC[C@@H]1N1C(=O)c2ccccc2[C@@H](C(=O)NOCc2ccc(CC(=O)O)cc2)[C@@H]1c1ccc(Cl)cc1Cl` [Ex 856], in that order: 6.8 nM and 61.4%. Turning to `Cc1[nH]cnc1CN1CCc2c(c3ccccc3n2C)C1=O` [alosetron], the “improving rate for abdominal symptoms and diarrhea” value in assay [3] is 40 to 60%. Consider RC-3095, for which the “efficacy for abnormal bowel motility” value in assay [4] is “effective”. In addition, the “efficacy for abdominal symptom (abdominal muscle contraction reaction as index)” value in assay [5] is “effective”.

(Values after patent publication US10532048B2, “Tetrahydroisoquinolin-1-one derivative or salt thereof” (Seldar Pharma Inc., priority 2007, dated 2020).)
